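1) Cells in 96-well plates. 2) Compound, 48 h, 5 concentrations. 3) Linear interpolation between surrounding doses. 4) Unreached endpoint = highest concentration. At the TGI there is no net growth.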
What was measured:
Assay in all cases: NCI-60 cell line screen, 48 h
[1] = tested on: SR leukemia
[2] = tested on: SF-539 CNS
[3] = tested on: MCF7 breast
[4] = tested on: T-47D breast
[5] = tested on: UACC-257 melanoma
[6] = tested on: TK-10 renal
[7] = tested on: CAKI-1 renal
[8] = tested on: PC-3 prostate
[9] = tested on: MDA-MB-435
[10] = tested on: RXF 393 renal
[11] = tested on: NCI-H23 lung
[12] = tested on: SK-MEL-5 melanoma
[13] = tested on: NCI-H522 lung
[14] = tested on: HCT-116 colon
[15] = tested on: OVCAR-5 ovarian
[16] = tested on: SW-620 colon
[17] = tested on: NCI/ADR-RES ovarian
[18] = tested on: ACHN renal
[19] = tested on: SNB-75 CNS
[20] = tested on: 786-0 renal
[21] = tested on: RPMI-8226 leukemia
[22] = tested on: EKVX NSCLC
[23] = tested on: SK-MEL-2 melanoma
[24] = tested on: M14 melanoma
[25] = tested on: A498 renal
[26] = tested on: MALME-3M melanoma
[27] = tested on: IGROV1 ovarian
[28] = tested on: OVCAR-4 ovarian
[29] = tested on: LOX IMVI melanoma
[30] = tested on: MOLT-4 leukemia
[31] = tested on: HOP-92 NSCLC
[32] = tested on: HT29 colon
[33] = tested on: HCT-15 colon
[34] = tested on: DU-145 prostate
[35] = tested on: SK-MEL-28 melanoma
[36] = tested on: MDA-N
[37] = tested on: COLO 205 colon
[38] = tested on: OVCAR-8 ovarian
[39] = tested on: SN12C renal
[40] = tested on: UO-31 renal
[41] = tested on: BT-549 breast
[42] = tested on: SF-295 CNS
[43] = tested on: MDA-MB-231 breast
[44] = tested on: U251 CNS
[45] = tested on: SK-OV-3 ovarian
[46] = tested on: HCC-2998 colon
[47] = tested on: UACC-62 melanoma
[48] = tested on: K-562 leukemia
[49] = tested on: HOP-62 NSCLC
[50] = tested on: A549 NSCLC
[51] = tested on: CCRF-CEM leukemia
[52] = tested on: KM12 colon
[53] = tested on: OVCAR-3 ovarian
[54] = tested on: HL-60(TB) leukemia
[55] = tested on: SF-268 CNS
[56] = tested on: NCI-H460 lung
[57] = tested on: SNB-19 CNS
[58] = tested on: NCI-H226 lung

N#CC(C#N)N=Nc1ccc(-c2nc3ccccc3s2)cc1
TGI [1]: 10.3 µM
TGI [2]: 25.8 µM
TGI [3]: 14.9 µM
TGI [4]: 8.21 µM
TGI [5]: 11.2 µM
TGI [6]: 11.3 µM
TGI [7]: 20.7 µM
TGI [8]: 10.1 µM
TGI [9]: 39.9 µM
TGI [10]: 15.8 µM
TGI [11]: 8.72 µM
TGI [12]: 9.37 µM
TGI [13]: 7.8 µM
TGI [14]: 13.6 µM
TGI [15]: 50.5 µM
TGI [16]: 22.7 µM
TGI [17]: 15.2 µM
TGI [18]: 15.2 µM
TGI [19]: 54.8 µM
TGI [20]: 22 µM
TGI [21]: 3.4 µM
TGI [22]: 22.8 µM
TGI [23]: 16.7 µM
TGI [24]: 32.1 µM
TGI [25]: 23.8 µM
TGI [26]: 7.99 µM
TGI [27]: 22.2 µM
TGI [28]: 78.6 µM
TGI [29]: 20.4 µM
TGI [30]: 3.68 µM
TGI [31]: 4.64 µM
TGI [32]: 20.4 µM
TGI [33]: 13.5 µM
TGI [34]: 19.6 µM
TGI [35]: 35.9 µM
TGI [36]: 63.1 µM
TGI [37]: 14 µM
TGI [38]: 43.8 µM
TGI [39]: 10.8 µM
TGI [40]: 21.8 µM
TGI [41]: 19.2 µM

C/C1=C\CC[C@@]2(C)O[C@@H]2C[C@@H]2[C@H](C/C(C)=C/CC1)OC(=O)C21CC1
TGI [42]: > 100 µM
TGI [1]: 48 µM
TGI [2]: > 100 µM
TGI [3]: > 100 µM
TGI [4]: > 100 µM
TGI [5]: > 100 µM
TGI [6]: > 100 µM
TGI [43]: > 100 µM
TGI [7]: > 100 µM
TGI [8]: > 100 µM
TGI [9]: > 100 µM
TGI [44]: > 100 µM
TGI [10]: > 100 µM
TGI [45]: > 100 µM
TGI [12]: > 100 µM
TGI [14]: > 100 µM
TGI [46]: > 100 µM
TGI [15]: > 100 µM
TGI [16]: > 100 µM
TGI [17]: > 100 µM
TGI [47]: > 100 µM
TGI [18]: > 100 µM
TGI [19]: > 100 µM
TGI [20]: > 100 µM
TGI [21]: 46.3 µM
TGI [22]: > 100 µM
TGI [23]: > 100 µM
TGI [48]: 66.2 µM
TGI [49]: > 100 µM
TGI [50]: > 100 µM
TGI [51]: 65.8 µM
TGI [24]: > 100 µM
TGI [25]: > 100 µM
TGI [26]: > 100 µM
TGI [27]: 72.7 µM
TGI [30]: 61.2 µM
TGI [52]: > 100 µM
TGI [53]: > 100 µM
TGI [32]: > 100 µM
TGI [33]: > 100 µM
TGI [34]: > 100 µM
TGI [35]: > 100 µM
TGI [36]: > 100 µM
TGI [54]: 93.7 µM
TGI [55]: > 100 µM
TGI [37]: > 100 µM
TGI [38]: > 100 µM
TGI [39]: > 100 µM
TGI [56]: > 100 µM
TGI [40]: > 100 µM
TGI [57]: > 100 µM
TGI [41]: > 100 µM

O=c1[nH]c2ccccc2c(O)c1/C=N/C(=S)NCCc1ccccc1
TGI [42]: > 100 µM
TGI [2]: > 100 µM
TGI [3]: > 100 µM
TGI [4]: > 100 µM
TGI [5]: > 100 µM
TGI [6]: > 100 µM
TGI [43]: > 100 µM
TGI [7]: > 100 µM
TGI [8]: > 100 µM
TGI [9]: > 100 µM
TGI [44]: > 100 µM
TGI [45]: > 100 µM
TGI [11]: > 100 µM
TGI [12]: > 100 µM
TGI [14]: > 100 µM
TGI [46]: > 100 µM
TGI [15]: > 100 µM
TGI [16]: > 100 µM
TGI [17]: > 100 µM
TGI [47]: > 100 µM
TGI [18]: > 100 µM
TGI [19]: > 100 µM
TGI [20]: > 100 µM
TGI [22]: > 100 µM
TGI [23]: > 100 µM
TGI [49]: > 100 µM
TGI [50]: > 100 µM
TGI [24]: > 100 µM
TGI [27]: > 100 µM
TGI [28]: > 100 µM
TGI [29]: > 100 µM
TGI [30]: > 100 µM
TGI [52]: > 100 µM
TGI [31]: > 100 µM
TGI [53]: > 100 µM
TGI [32]: > 100 µM
TGI [33]: > 100 µM
TGI [34]: > 100 µM
TGI [35]: > 100 µM
TGI [36]: > 100 µM
TGI [54]: > 100 µM
TGI [37]: > 100 µM
TGI [58]: > 100 µM
TGI [38]: > 100 µM
TGI [39]: > 100 µM
TGI [56]: > 100 µM
TGI [40]: > 100 µM
TGI [57]: > 100 µM
TGI [41]: > 100 µM
